We go through one substance from patent US8785493B2, “Treatment of retroviral reservoirs exploiting oxidative stress” (Istituto Superiore di Sanita, priority 2008, dated 2014).

What all share (assay type): cell-based
The test system of series [1] is HIV-1 LTR in Jurkat A1 cells. The settings on record: 72 h.
Series [2] has as its system NF-kappaB (p65/p50) in Jurkat 8.4 cells. Kind of series: NF-kappaB nuclear translocation, colorimetric p65 assay. Details: dose or concentration left out as unconfirmed. The settings on record: auranofin, different incubation times, relative to TNF-alpha 1.5 h. The protocol: Detection of NF-kappaB nuclear translocation. Nuclear extracts from control Jurkat 8.4 cells and cells treated with auranofin at different times of incubation were obtained using a nuclear extraction kit (Chemicon International), following the Manufacturer's instructions. NF-kappaB nuclear translocation was detected using a colorimetric transcription factor assay (Millipore) for the p65 subunit. Results were expressed as a percentage of the signal obtained in cells incubated with the potent NF-kappaB stimulating cytokine TNF-alpha (5 ng/ml) for 1.5 h, at which the peak of nuclear translocation of NF-kappaB is reached.

Series [3] relates to HIV-1 LTR in quiescently infected Jurkat 8.4 cells. Kind of series: HIV-1 LTR-controlled GFP expression, flow cytometry, Jurkat clone 8.4. For orientation: In flow cytometry, cells or beads pass a laser one at a time.
The test system of series [4] is HIV-1 replication in latently HIV-1 infected monocytoid U1 cells.
The test system of a further series is our cell lines. In words: Toxicity of auranofin to the cell lines used. As to conditions: concentrations approx. two orders of magnitude superior to those of the present study, data not shown. From the text:
Cell viability assay. Cell viability was quantitated using the methyl tetrazolium (MTT) procedure. Absorbance values were generated at a wavelength of 550 nm using 96-well ELISA readers and subtracted of the blank values using cell culture media in the absence of cells. Cell viability in the presence of the test compounds was expressed as a percentage of the cell viability of control untreated cell cultures.

The test system of series [5] is HIV-1 replication in latently HIV-1 infected lymphocytic ACH-2 cells.

On to “gold(1+); 3,4,5-triacetyloxy-6-(acetyloxymethyl)oxane-2-thiolate; triethylphosphanium [auranofin]”, for which, in series [1], the “LTR-controlled GFP expression, Jurkat A1 cells” value is on record as “induction of LTR-controlled expression of green-fluorescent protein (GFP)”. In series [2], the “NF-kappaB (p65) in nuclear extracts” value is “time-dependent NF-kappaB accumulation within the nuclei”. Also, the “LTR-controlled GFP expression, Jurkat 8.4 cells” value in series [3] (72 h, gated live cells) is recorded as “dose-dependent shift in fluorescence”. In addition, the “GFP expression in combination with HDACI (MC2113), Jurkat 8.4 cells” value in series [3] (auranofin 0.25 microM plus MC2113 1 microM) was “recruited the HDACi-unresponsive cells into the responding cell population”. In addition, the “Effect on HIV-1 replication (p24), U1 cells” value in series [4] (0.125-0.5 μM, 24 h and 72 h) was “increased HIV-1 replication in a time- and dose-dependent manner”. Besides, the “Combined HIV-1 activating effect with MC2113, U1 cells” value in series [4] (auranofin 0.25 μM plus MC2113 1 μM, 24 h) is recorded as “synergistic”. In addition, in the series on our cell lines, the “Toxicity to cell lines” value is given as “toxic to our cell lines”. Besides, the “Effect on HIV-1 replication (p24), ACH-2 cells” value in series [5] (0.125-0.5 μM, 24 h and 72 h) is “increased HIV-1 replication in a time- and dose-dependent manner”. In series [5] (auranofin plus BSO, percentage-of-synergism surface, three days), the “Combined HIV-1 activating effect with BSO, ACH-2 cells” value is recorded as “synergistic HIV-1 activating effects”. In series [5] (percentage-of-synergism surface, three days), the “Combined HIV-1 activating effect with FeNTA, ACH-2 cells” value is recorded as “synergistic HIV-1 activating effects”.
